# Assay results as given in patent publication EP0719267B1, “SECOND MESSENGER CELL SIGNALING INHIBITORS” (CELL THERAPEUTICS, INC., priority 1993, dated 1994).
# Key:
# murine splenocytes [1] = experiment: Splenocytes stimulated with anti-CD3 and anti-CD28 antibodies: proliferation and cytokine release; format: cell-based
# Excerpt: Figures 58A and 58B illustrate that inventive compound no. […] Murine splenocytes were stimulated with a mixture of anti-CD3 and anti-CD28 monoclonal antibodies. Inventive compound no.
# Figures 58C and 58D illustrate that compound no. […] Procedurally, murine splenocytes were stimulated with a mixture of anti-CD3/CD28 antibodies. Inventive compound no. […] Addition of an anti-IL-2 receptor alpha subunit antibody and an anti-IL-2 receptor beta subunit antibody to the cultures inhibited both proliferation and the release of IFN-γ (figure 60D).
# [2] = system: human foreskin fibroblasts, HS68; experiment: Prostaglandin E2 release from IL-1α-stimulated fibroblasts; format: cell-based; conditions: 100 pg/ml IL-1α, 24 hours
# Method: Figure 61 illustrates that inventive compound no. […] Cells were stimulated with 100 pg/ml IL-1α. Inventive compound no. 45 was added 1 hour prior to stimulation. Supernatants were harvested 24 hours later and levels of PGE2 were analyzed by commercial immunoassay. The results are reported in figure 61 and confirm no effect on PGE2 release.
# [3] = system: human mixed leukocyte reaction (MLR); experiment: Mixed leukocyte reaction (MLR), two HLA disparate individuals; format: cell-based; conditions: 144 h, 6 days co-culture
# Method: Figures 50A and 50B illustrate that compound no. 45 inhibits a murine mixed tumor lymophocyte culture (MTLC) and a human mixed leukocyte reaction (MLR). In the MTLC, splenocytes were stimulated (co-culture) with an alloantigen, B cell tumor target cell line (2PK3) in the presence or absence of compound no. 45. Cells were stimulated for 3 days, ^3H-TdR was added and the cells were harvested 4 hours later. Incorporation of ^3H-TdR was determined by liquid scintillation. Background counts were 1000-1200 CPM. For the human MLR, purified peripheral lymphocytes from two HLA disparate individuals were co-cultured for 6 days with or without compound no. 45. On the 7th day the cultures were pulsed with ^3HTdR for 24 hours and counted by scintillation.
# [4] = system: murine thymocyte proliferation; experiment: Thymocyte proliferation co-stimulated by ConA and IL-2 (tritiated thymidine); format: cell-based, Balb/C mice; conditions: for inhibition with delayed addition: 1 µM
# murine splenocytes [5] = experiment: Anti-CD3 priming followed by IL-2 restimulation of splenocytes; format: cell-based; conditions: 1 µM
# Method: 53A. […] The cells were pulsed with ^3H-TdR for 4 hours and harvested and incorporation of ^3H-TdR determined.
# [6] = system: normal human bone marrow stromal cells; experiment: Cytotoxicity in normal bone marrow stromal cells (vital dye uptake); format: cell-based; conditions: much higher concentrations than cytotoxic to tumor cells
# Method: Human bone marrow stromal cells (1 x 10^4 cells/well) were plated in 96 well plates in McCoy's medium with serum and incubated overnight. Different dilutions of inventive compound no. 50 were added and viable cell counts made by vital dye uptake.
# B16 melanoma cells = experiment: B16 melanoma in vivo study: bone marrow toxicity; set-up: species or system mice; conditions: 10 mg/kg QD or 20 mg/kg QOC
# Method: Figures 41A, 41B and 41C illustrates the results from an in vivo study in mice where B16 melanoma cells were injected intravenously through a tail vein on day 0 and compound no. 50 was administered inter parenterally at 10 mg/kg QD or 20 mg/kg QOC, starting days 1-14. The mice were sacrificed on day 15 and the lungs were dissected and fixed in formalin. In addition bone marrow toxicity was evaluated by measuring neutrophil and platelet counts in the mice on day 15.
# IL-2 = IL-2 production in thymocytes stimulated with ConA and IL-1 (ELISA); format: cell-based, murine; conditions: ConA and IL-1, 4 days
# Excerpt: Thymocytes were stimulated with ConA and IL-1 for 4 days with or without adding inventive compounds to the culture media. The supernatants were removed and assayed by ELISA for IL-2 levels by a commercially available kit.
# [7] = system: human smooth muscle cells (SMC); experiment: Chemotaxis of smooth muscle cells to PDGF (Boyden chamber); format: cell-based; conditions: eight hours
# Method: Figure 71 illustrates that inventive compound no. […] In the assay, cells were seeded in a Boyden chamber with or without various concentrations of inventive compound no. 58. Eight hours later, the number of cells that had migrated were scored visually. Inventive compound no.
smiles,measurement,setting,value
CCCCCCCCNCC(O)CCCCCCCCCn1c(=O)c2c(ncn2C)n(C)c1=O (stereo not drawn) [compound no. 45],CD28-mediated release of IL-2,murine splenocytes [1],did not inhibit the CD28-mediated release of IL-2
same,T cell proliferation,murine splenocytes [1],inhibited T cell proliferation in this system
same,release of IFN-γ,murine splenocytes [1],inhibited release of IFN-γ
same,prostaglandin E2 release,[2],did not have an effect on prostaglandin E2 release
same,IC50,[3],~500 nM
same,inhibition with delayed addition,[4]; added 72 and 92 hours after IL-2,significant inhibition remained even at 72 and 92 hours following addition of IL-2
same,inhibition with delayed addition,[4]; added 24 hours after IL-2,maximally inhibits thymocyte proliferation even when added 24 hours following the IL-2 stimulation
same,IC50,"[4]; Mus musculus, Thymocyte, Con A (0.25 µg/ml) and IL-2 (20 ng/ml), 96 hours",~350 nM
same,"proliferation of anti-CD3 primed splenocytes, compound present with IL-2",murine splenocytes [5],proliferation was inhibited
same,response to IL-2 after compound present during anti-CD3 incubation,murine splenocytes [5],did not block the splenocyte's ability to respond to IL-2
"CCCCCCCCCCCCNCC(O)CCCCCCCCCn1c(=O)c2c(ncn2C)n(C)c1=O (stereo not drawn) [compound no. 50, 1-(11-Dodecylamino-10-hydroxyundecyl)-3,7-dmethylxanthine]",cytotoxic activity,[6],lacks cytotoxic activity in normal human bone marrow stromal cells
same,neutrophil and platelet counts,B16 melanoma cells; day 15,increased counts over non-treated control animals
same,bone marrow toxicity,"B16 melanoma cells; days 1-14, day 15",not toxic to the bone marrow
same,IL-2 production,IL-2,do not inhibit production of IL-2
"COc1cc(CNCC(O)CCCCCCCCCn2c(=O)c3c(ncn3C)n(C)c2=O)cc(OC)c1OC (stereo not drawn) [compound no. 58, 1-[11-(3,4,5-Trimethoxybenzylamino)-10-hydroxyundecyl]-3,7-dimethylxanthine]",PDGF-directed chemotaxis,[7],had no effect on PDGF-directed SMC chemotaxis
